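Growth conditions: 96-well plates. Treatment: test compound, 48 hours, 5 concentrations. Analysis: linear interpolation between bracketing concentrations; unreached endpoints set to highest concentration. Abbreviation: GI50, concentration required for 50% inhibition of growth.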 Active and inactive are the calls of the source. Rule as the data show it: active = GI50 up to about 1.1 µM and inactive = higher.
Assays:
Experiment in all cases: NCI tumour cell line growth inhibition, 48 h
[1] = tested on: OVCAR-5
[2] = tested on: Malme-3M
[3] = tested on: T47D
[4] = tested on: CAKI-1
[5] = tested on: KM12
[6] = tested on: RXF 393
[7] = tested on: HL-60
[8] = tested on: SK-MEL-28
[9] = tested on: SF-268
[10] = tested on: BT-549
[11] = tested on: CCRF-CEM
[12] = tested on: OVCAR-4
[13] = tested on: SNB-19
[14] = tested on: HCC 2998
[15] = tested on: SK-MEL-5
[16] = tested on: MDA-MB-231
[17] = tested on: HT-29
[18] = tested on: A549
[19] = tested on: M14
[20] = tested on: RPMI-8226
[21] = tested on: NCI/ADR-RES
[22] = tested on: NCI-H23
[23] = tested on: NCI-H522
[24] = tested on: NCI-H226
[25] = tested on: Hs-578T
[26] = tested on: SR
[27] = tested on: MOLT-4
[28] = tested on: HCT-15
[29] = tested on: SK-MEL-2
[30] = tested on: A498
[31] = tested on: HCT-116
[32] = tested on: DU-145
[33] = tested on: PC-3
[34] = tested on: MCF7
[35] = tested on: U-251
[36] = tested on: K562
[37] = tested on: SF-539
[38] = tested on: MDA-N
[39] = tested on: NCI-H460
[40] = tested on: SK-OV-3
[41] = tested on: UACC-62
[42] = tested on: SNB-75
[43] = tested on: 786-0
[44] = tested on: UACC-257
[45] = tested on: SW-620
[46] = tested on: COLO 205
[47] = tested on: EKVX
[48] = tested on: SN12C
[49] = tested on: UO-31
[50] = tested on: LOX IMVI
[51] = tested on: TK-10
[52] = tested on: OVCAR-8
[53] = tested on: OVCAR-3
[54] = tested on: MDA-MB-435
[55] = tested on: SF-295
[56] = tested on: ACHN
[57] = tested on: HOP-62
[58] = tested on: IGROV-1

## CSc1c2c(C)n[nH]c2nn1-c1ccccc1
[1]
  GI50: > 100 µM (inactive)
[2]
  GI50: > 100 µM (inactive)
[3]
  GI50: 85.1 µM (inactive)
[4]
  GI50: 21.1 µM (inactive)
[5]
  GI50: 68.7 µM (inactive)
[6]
  GI50: 30.6 µM (inactive)
[7]
  GI50: 29.6 µM (inactive)
[8]
  GI50: > 100 µM (inactive)
[9]
  GI50: 57.8 µM (inactive)
[10]
  GI50: 80 µM (inactive)
[11]
  GI50: 33 µM (inactive)
[12]
  GI50: 53.7 µM (inactive)
[13]
  GI50: > 100 µM (inactive)
[14]
  GI50: 57.8 µM (inactive)
[15]
  GI50: > 100 µM (inactive)
[16]
  GI50: 18.4 µM (inactive)
[17]
  GI50: 36 µM (inactive)
[18]
  GI50: > 100 µM (inactive)
[19]
  GI50: 81.7 µM (inactive)
[20]
  GI50: > 100 µM (inactive)
[21]
  GI50: > 100 µM (inactive)
[22]
  GI50: > 100 µM (inactive)
[23]
  GI50: 5.01 µM (inactive)
[24]
  GI50: 58.5 µM (inactive)
[25]
  GI50: > 100 µM (inactive)
[26]
  GI50: 20.2 µM (inactive)
[27]
  GI50: 42.6 µM (inactive)
[28]
  GI50: 37.2 µM
[29]
  GI50: > 100 µM (inactive)
[30]
  GI50: 90.8 µM (inactive)
[31]
  GI50: 45.4 µM (inactive)
[32]
  GI50: 88.3 µM (inactive)
[33]
  GI50: 58.7 µM (inactive)
[34]
  GI50: 92 µM (inactive)
[35]
  GI50: 61.4 µM (inactive)
[36]
  GI50: 47.5 µM (inactive)
[37]
  GI50: 40.4 µM (inactive)
[38]
  GI50: > 100 µM (inactive)
[39]
  GI50: > 100 µM (inactive)
[40]
  GI50: > 100 µM (inactive)
[41]
  GI50: 68.1 µM (inactive)
[42]
  GI50: > 100 µM (inactive)
[43]
  GI50: 66.8 µM (inactive)
[44]
  GI50: > 100 µM (inactive)
[45]
  GI50: 57.1 µM (inactive)
[46]
  GI50: 62.2 µM (inactive)
[47]
  GI50: 83.4 µM (inactive)
[48]
  GI50: > 100 µM (inactive)
[49]
  GI50: 46.7 µM (inactive)
[50]
  GI50: 24.1 µM (inactive)
[51]
  GI50: > 100 µM (inactive)
[52]
  GI50: 27.4 µM (inactive)
[53]
  GI50: 39.3 µM (inactive)
[54]
  GI50: > 100 µM (inactive)

## Oc1c2cc(Br)cc1CCc1cc(Br)cc(c1O)CC2
[1]
  GI50: 23.2 µM (inactive)
[2]
  GI50: 28.8 µM (inactive)
[3]
  GI50: 38.8 µM (inactive)
[4]
  GI50: 36 µM (inactive)
[5]
  GI50: 17.3 µM (inactive)
[6]
  GI50: 20.2 µM (inactive)
[7]
  GI50: 15.7 µM (inactive)
[8]
  GI50: 27 µM (inactive)
[9]
  GI50: 22.6 µM (inactive)
[10]
  GI50: 22.6 µM (inactive)
[11]
  GI50: 18.2 µM (inactive)
[13]
  GI50: 31 µM (inactive)
[14]
  GI50: 15.3 µM (inactive)
[15]
  GI50: 13.6 µM (inactive)
[16]
  GI50: 14 µM (inactive)
[17]
  GI50: 15.6 µM (inactive)
[18]
  GI50: 26.9 µM (inactive)
[55]
  GI50: 18.3 µM (inactive)
[19]
  GI50: 16.3 µM (inactive)
[20]
  GI50: 17.2 µM (inactive)
[56]
  GI50: 23.7 µM (inactive)
[21]
  GI50: 21.6 µM (inactive)
[22]
  GI50: 28.6 µM (inactive)
[23]
  GI50: 14.4 µM (inactive)
[24]
  GI50: 16.3 µM (inactive)
[25]
  GI50: 23.1 µM (inactive)
[26]
  GI50: < 0.01 µM (active)
[57]
  GI50: 28.6 µM (inactive)
[27]
  GI50: 18 µM (inactive)
[28]
  GI50: 30.5 µM
[29]
  GI50: 20 µM (inactive)
[30]
  GI50: 31.8 µM (inactive)
[31]
  GI50: 15.1 µM (inactive)
[32]
  GI50: 16 µM (inactive)
[33]
  GI50: 14.8 µM (inactive)
[34]
  GI50: 22.3 µM (inactive)
[35]
  GI50: 23.6 µM (inactive)
[36]
  GI50: 20.2 µM (inactive)
[37]
  GI50: 28.4 µM (inactive)
[38]
  GI50: 30.1 µM (inactive)
[39]
  GI50: 18.5 µM (inactive)
[40]
  GI50: 20.8 µM (inactive)
[41]
  GI50: 18.6 µM (inactive)
[42]
  GI50: 21.6 µM (inactive)
[43]
  GI50: 30.2 µM (inactive)
[44]
  GI50: 20.2 µM (inactive)
[45]
  GI50: 24.3 µM (inactive)
[46]
  GI50: 14.4 µM (inactive)
[48]
  GI50: 41.9 µM (inactive)
[49]
  GI50: 12.8 µM (inactive)
[50]
  GI50: 16.2 µM (inactive)
[51]
  GI50: 31.6 µM (inactive)
[58]
  GI50: 38.2 µM (inactive)
[52]
  GI50: 28.8 µM (inactive)
[53]
  GI50: 20.2 µM (inactive)
[54]
  GI50: 29.2 µM (inactive)

## O=c1[nH][nH]c(=O)n1Cc1ccccc1
[1]
  GI50: > 100 µM (inactive)
[2]
  GI50: > 100 µM (inactive)
[3]
  GI50: > 100 µM (inactive)
[4]
  GI50: > 100 µM (inactive)
[5]
  GI50: > 100 µM (inactive)
[6]
  GI50: > 100 µM (inactive)
[7]
  GI50: > 100 µM (inactive)
[8]
  GI50: > 100 µM (inactive)
[9]
  GI50: > 100 µM (inactive)
[10]
  GI50: > 100 µM (inactive)
[11]
  GI50: > 100 µM (inactive)
[12]
  GI50: > 100 µM (inactive)
[13]
  GI50: > 100 µM (inactive)
[14]
  GI50: > 100 µM (inactive)
[15]
  GI50: > 100 µM (inactive)
[16]
  GI50: > 100 µM (inactive)
[17]
  GI50: > 100 µM (inactive)
[18]
  GI50: > 100 µM (inactive)
[19]
  GI50: > 100 µM (inactive)
[20]
  GI50: > 100 µM (inactive)
[21]
  GI50: > 100 µM (inactive)
[22]
  GI50: > 100 µM (inactive)
[23]
  GI50: > 100 µM (inactive)
[24]
  GI50: > 100 µM (inactive)
[25]
  GI50: > 100 µM (inactive)
[26]
  GI50: > 100 µM (inactive)
[27]
  GI50: > 100 µM (inactive)
[28]
  GI50: > 100 µM
[29]
  GI50: > 100 µM (inactive)
[30]
  GI50: > 100 µM (inactive)
[31]
  GI50: > 100 µM (inactive)
[32]
  GI50: > 100 µM (inactive)
[33]
  GI50: > 100 µM (inactive)
[34]
  GI50: > 100 µM (inactive)
[35]
  GI50: > 100 µM (inactive)
[36]
  GI50: > 100 µM (inactive)
[37]
  GI50: > 100 µM (inactive)
[38]
  GI50: > 100 µM (inactive)
[39]
  GI50: > 100 µM (inactive)
[40]
  GI50: > 100 µM (inactive)
[41]
  GI50: > 100 µM (inactive)
[42]
  GI50: > 100 µM (inactive)
[43]
  GI50: > 100 µM (inactive)
[44]
  GI50: > 100 µM (inactive)
[45]
  GI50: > 100 µM (inactive)
[46]
  GI50: > 100 µM (inactive)
[47]
  GI50: > 100 µM (inactive)
[48]
  GI50: > 100 µM (inactive)
[49]
  GI50: > 100 µM (inactive)
[50]
  GI50: > 100 µM (inactive)
[51]
  GI50: > 100 µM (inactive)
[52]
  GI50: > 100 µM (inactive)
[53]
  GI50: > 100 µM (inactive)
[54]
  GI50: > 100 µM (inactive)

Source: ChEMBL document CHEMBL1201862, “PubChem BioAssay data set” (2004)
